# pIC50: −log10 of the molar value.
# Columns and labels:
# [1] = biological target: T1, Sodium/glucose cotransporter 2 (Homo sapiens) (UniProt P31639); assay: Inhibition of human SGLT2 expressed in COS1 cells assessed as [14C]methyl-alpha-D-glucopyranoside uptake at 50 uM; format: cell-based; conditions: COS-1
# T1 sequence (whole entry): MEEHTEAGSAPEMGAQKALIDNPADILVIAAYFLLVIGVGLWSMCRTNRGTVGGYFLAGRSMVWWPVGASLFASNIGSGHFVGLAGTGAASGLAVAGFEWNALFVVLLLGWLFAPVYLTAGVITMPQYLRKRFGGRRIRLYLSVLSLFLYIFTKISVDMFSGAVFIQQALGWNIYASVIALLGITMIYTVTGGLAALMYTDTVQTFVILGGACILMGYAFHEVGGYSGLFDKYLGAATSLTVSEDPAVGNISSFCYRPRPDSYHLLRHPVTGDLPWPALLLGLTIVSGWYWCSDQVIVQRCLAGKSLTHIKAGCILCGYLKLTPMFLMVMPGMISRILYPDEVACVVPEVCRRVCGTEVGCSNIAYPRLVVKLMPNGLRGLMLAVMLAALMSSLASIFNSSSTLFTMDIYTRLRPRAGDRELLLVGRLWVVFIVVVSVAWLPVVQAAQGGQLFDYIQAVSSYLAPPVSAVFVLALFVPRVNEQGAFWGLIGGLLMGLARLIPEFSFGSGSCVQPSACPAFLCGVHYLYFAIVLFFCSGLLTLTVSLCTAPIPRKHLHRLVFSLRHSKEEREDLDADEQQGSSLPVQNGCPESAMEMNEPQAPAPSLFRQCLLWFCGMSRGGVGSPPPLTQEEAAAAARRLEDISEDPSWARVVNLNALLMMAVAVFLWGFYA
# [2] = biological target: T2, Sodium/glucose cotransporter 1 (Homo sapiens) (UniProt P13866); assay: Inhibition of human SGLT1 expressed in COS1 cells assessed as [14C]methyl-alpha-D-glucopyranoside uptake at 50 uM; format: cell-based; conditions: COS-1
# T2 sequence (whole entry): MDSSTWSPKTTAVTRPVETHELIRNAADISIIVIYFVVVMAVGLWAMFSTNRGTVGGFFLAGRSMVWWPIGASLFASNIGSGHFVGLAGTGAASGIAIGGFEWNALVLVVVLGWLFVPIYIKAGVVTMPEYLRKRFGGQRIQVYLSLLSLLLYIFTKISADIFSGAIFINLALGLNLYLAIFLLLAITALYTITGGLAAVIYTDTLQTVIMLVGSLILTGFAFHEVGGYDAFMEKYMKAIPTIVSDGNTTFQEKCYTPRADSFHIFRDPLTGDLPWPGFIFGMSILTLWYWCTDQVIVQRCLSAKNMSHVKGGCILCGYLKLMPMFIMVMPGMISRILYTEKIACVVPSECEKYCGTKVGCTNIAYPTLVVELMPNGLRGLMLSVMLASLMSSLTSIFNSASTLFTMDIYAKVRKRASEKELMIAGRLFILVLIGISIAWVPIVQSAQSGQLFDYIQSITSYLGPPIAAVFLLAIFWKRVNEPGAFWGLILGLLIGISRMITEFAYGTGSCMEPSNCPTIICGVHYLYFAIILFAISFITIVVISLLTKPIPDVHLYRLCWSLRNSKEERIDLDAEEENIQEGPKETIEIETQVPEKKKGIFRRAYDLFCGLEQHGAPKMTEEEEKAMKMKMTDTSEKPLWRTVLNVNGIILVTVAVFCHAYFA
# [3] = biological target: T3, Sodium/glucose cotransporter 2 (Homo sapiens, UniProt P31639); assay: Inhibition of human SGLT2 expressed in COS1 cells assessed as [14C]methyl-alpha-D-glucopyranoside uptake; format: cell-based, COS-1
# T3 sequence (P31639 whole entry): T1 sequence (whole entry)
Compound,inhibition [1] [%],inhibition [2] [%],pIC50 [3]
C=C(C)[C@H](CC=C(C)C)Cc1c(O)cc(O)c2c1O[C@H](c1ccc(O)cc1O)CC2=O [SOPHORAFLAVANONE G],100,99.2,5.39
C=C(C)C(CC=C(C)C)Cc1c(O)cc(OC)c2c1O[C@H](c1ccc(O)cc1O)CC2=O (stereo partly drawn) [KURARINONE],99.7,98.8,5.77
C=C(C)[C@H](CCC(C)(C)O)Cc1c(O)cc(OC)c2c1O[C@H](c1ccc(O)cc1O)[C@H](O)C2=O,43.7,29.7,–
C=C(C)[C@H](CC=C(C)C)Cc1c(O)cc(OC)c(C(=O)/C=C/c2ccc(O)cc2O)c1O,100,71.1,–
COc1ccc(-c2coc3cc(O)ccc3c2=O)cc1,75.4,< 25,–

# Next, values leading:
inhibition [1] [%],inhibition [2] [%],pIC50 [3],Compound
< 25,< 25,–,COc1ccc2c(c1)OC[C@H]1c3cc4c(cc3O[C@@H]21)OCO4
66.5,< 25,–,Oc1ccc2c(c1)OC[C@H]1c3cc4c(cc3O[C@@H]21)OCO4
87.3,58.4,–,C=C(C)C(CC=C(C)C)Cc1c(O)cc(OC)c2c1O[C@H](c1ccc(O)cc1O)[C@H](O)C2=O (stereo partly drawn)

# From ChEMBL document CHEMBL1147913, “Na+-glucose cotransporter (SGLT) inhibitory flavonoids from the roots of Sophora flavescens” (Bioorg Med Chem, 2007)
